Experimental data taken from ChEMBL document CHEMBL3792324, “Discovery of KDM5A inhibitors: Homology modeling, virtual screening and structure-activity relationship analysis” (Bioorg Med Chem Lett, 2016).
pIC50: −log10 of the molar value. Activity calls are given as the source filed them. The rule behind the calls is not given here.

Assays:
[1] = molecular target: T1, Lysine-specific demethylase 5A (Homo sapiens, UniProt P29375); assay: Inhibition of KDM5A (unknown origin) using substrate peptide/ascorbate/2-OG/ Fe(2) as substrate preincubated for 15 mins followed by addition of substrate peptide/ ascorbate/2-OG/ Fe(2) measured after 1 hr by AlphaLISA method
[2] = molecular target: T1, Lysine-specific demethylase 5A; assay: Inhibition of KDM5A (unknown origin) using substrate peptide/ascorbate/2-OG/ Fe(2) as substrate at 10 uM preincubated for 15 mins followed by addition of substrate peptide/ ascorbate/2-OG/ Fe(2) measured after 1 hr by AlphaLISA method
[3] = molecular target: T1, Lysine-specific demethylase 5A; assay: […] of KDM5A in human ZR-75-1 cells effect on H3K4me3 expression after 48 hrs by Western blot analysis; type: cell-based
[4] = molecular target: T2, Lysine-specific demethylase 3A (Homo sapiens, UniProt Q9Y4C1); assay: Inhibition of KDM3A (unknown origin) using substrate peptide/ascorbate/2-OG/ Fe(2) as substrate preincubated for 15 mins followed by addition of substrate peptide/ ascorbate/2-OG/ Fe(2) measured after 1 hr by AlphaLISA method
T2 sequence (Q9Y4C1 whole entry): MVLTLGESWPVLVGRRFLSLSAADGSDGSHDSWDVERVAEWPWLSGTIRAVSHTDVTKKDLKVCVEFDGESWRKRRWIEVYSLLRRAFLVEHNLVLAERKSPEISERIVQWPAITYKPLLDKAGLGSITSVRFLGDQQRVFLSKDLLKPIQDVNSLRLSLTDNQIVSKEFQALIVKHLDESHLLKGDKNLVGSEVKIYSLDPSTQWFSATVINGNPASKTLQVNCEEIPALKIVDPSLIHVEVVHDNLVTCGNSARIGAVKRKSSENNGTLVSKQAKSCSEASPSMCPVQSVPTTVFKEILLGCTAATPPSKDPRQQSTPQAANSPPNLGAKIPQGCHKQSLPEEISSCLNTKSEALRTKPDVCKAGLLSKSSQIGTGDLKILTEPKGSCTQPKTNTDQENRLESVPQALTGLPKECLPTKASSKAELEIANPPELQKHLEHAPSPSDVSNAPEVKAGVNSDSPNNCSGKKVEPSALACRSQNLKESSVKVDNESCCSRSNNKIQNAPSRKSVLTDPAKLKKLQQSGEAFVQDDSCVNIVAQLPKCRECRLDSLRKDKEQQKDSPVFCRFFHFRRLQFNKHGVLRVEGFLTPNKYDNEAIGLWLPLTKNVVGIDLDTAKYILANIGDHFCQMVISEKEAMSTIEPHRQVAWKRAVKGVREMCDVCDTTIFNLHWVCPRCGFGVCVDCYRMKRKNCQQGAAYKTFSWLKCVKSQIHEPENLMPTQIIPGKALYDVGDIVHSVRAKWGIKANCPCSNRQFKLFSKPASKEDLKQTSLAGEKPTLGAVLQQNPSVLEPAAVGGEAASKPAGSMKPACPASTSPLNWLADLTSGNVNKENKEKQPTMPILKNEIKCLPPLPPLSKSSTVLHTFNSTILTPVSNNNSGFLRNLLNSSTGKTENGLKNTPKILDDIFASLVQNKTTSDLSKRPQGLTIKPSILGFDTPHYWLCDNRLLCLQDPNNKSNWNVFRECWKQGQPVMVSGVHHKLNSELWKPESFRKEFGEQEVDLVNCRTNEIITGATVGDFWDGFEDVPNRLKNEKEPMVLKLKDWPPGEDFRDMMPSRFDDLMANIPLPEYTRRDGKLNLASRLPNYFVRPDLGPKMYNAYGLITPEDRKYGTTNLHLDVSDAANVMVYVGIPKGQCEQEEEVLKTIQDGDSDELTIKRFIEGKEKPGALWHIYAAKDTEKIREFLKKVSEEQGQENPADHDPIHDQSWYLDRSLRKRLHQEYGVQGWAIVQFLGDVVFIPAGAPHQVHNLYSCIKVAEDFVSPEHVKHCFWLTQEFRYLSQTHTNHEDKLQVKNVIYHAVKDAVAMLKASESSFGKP

[5] = molecular target: Lysine-specific demethylase 6B (Homo sapiens, UniProt O15054); assay: Inhibition of KDM6B (unknown origin) using substrate peptide/ascorbate/2-OG/ Fe(2) as substrate preincubated for 15 mins followed by addition of substrate peptide/ ascorbate/2-OG/ Fe(2) measured after 1 hr by AlphaLISA method
[6] = molecular target: T3, Lysine-specific demethylase 4E (Homo sapiens, UniProt B2RXH2); assay: Inhibition of KDM4E (unknown origin) using substrate peptide/ascorbate/2-OG/ Fe(2) as substrate preincubated for 15 mins followed by addition of substrate peptide/ ascorbate/2-OG/ Fe(2) measured after 1 hr by AlphaLISA method
T3 sequence (B2RXH2 whole entry): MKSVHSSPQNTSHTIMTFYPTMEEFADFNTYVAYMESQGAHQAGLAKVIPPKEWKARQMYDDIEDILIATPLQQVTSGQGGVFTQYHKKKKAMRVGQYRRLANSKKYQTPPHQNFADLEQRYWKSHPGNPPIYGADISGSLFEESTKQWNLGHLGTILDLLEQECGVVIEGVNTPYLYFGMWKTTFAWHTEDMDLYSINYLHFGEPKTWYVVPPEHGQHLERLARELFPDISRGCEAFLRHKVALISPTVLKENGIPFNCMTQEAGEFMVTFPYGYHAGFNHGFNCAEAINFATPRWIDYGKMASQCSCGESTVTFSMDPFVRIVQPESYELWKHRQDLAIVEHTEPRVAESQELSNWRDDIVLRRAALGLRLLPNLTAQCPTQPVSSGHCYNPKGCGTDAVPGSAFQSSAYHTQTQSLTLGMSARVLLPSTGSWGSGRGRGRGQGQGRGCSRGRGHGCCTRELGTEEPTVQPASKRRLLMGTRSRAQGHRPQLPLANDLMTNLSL

[7] = molecular target: Probable JmjC domain-containing histone demethylation protein 2C (Homo sapiens, UniProt Q15652); assay: Inhibition of KDM3C (unknown origin) using substrate peptide/ascorbate/2-OG/ Fe(2) as substrate preincubated for 15 mins followed by addition of substrate peptide/ ascorbate/2-OG/ Fe(2) measured after 1 hr by AlphaLISA method
[8] = molecular target: Lysine-specific demethylase 5B (Homo sapiens, UniProt Q9UGL1); assay: Inhibition of KDM5B (unknown origin) using substrate peptide/ascorbate/2-OG/ Fe(2) as substrate preincubated for 15 mins followed by addition of substrate peptide/ ascorbate/2-OG/ Fe(2) measured after 1 hr by AlphaLISA method
Sequence of Lysine-specific demethylase 5B (Q9UGL1 whole entry): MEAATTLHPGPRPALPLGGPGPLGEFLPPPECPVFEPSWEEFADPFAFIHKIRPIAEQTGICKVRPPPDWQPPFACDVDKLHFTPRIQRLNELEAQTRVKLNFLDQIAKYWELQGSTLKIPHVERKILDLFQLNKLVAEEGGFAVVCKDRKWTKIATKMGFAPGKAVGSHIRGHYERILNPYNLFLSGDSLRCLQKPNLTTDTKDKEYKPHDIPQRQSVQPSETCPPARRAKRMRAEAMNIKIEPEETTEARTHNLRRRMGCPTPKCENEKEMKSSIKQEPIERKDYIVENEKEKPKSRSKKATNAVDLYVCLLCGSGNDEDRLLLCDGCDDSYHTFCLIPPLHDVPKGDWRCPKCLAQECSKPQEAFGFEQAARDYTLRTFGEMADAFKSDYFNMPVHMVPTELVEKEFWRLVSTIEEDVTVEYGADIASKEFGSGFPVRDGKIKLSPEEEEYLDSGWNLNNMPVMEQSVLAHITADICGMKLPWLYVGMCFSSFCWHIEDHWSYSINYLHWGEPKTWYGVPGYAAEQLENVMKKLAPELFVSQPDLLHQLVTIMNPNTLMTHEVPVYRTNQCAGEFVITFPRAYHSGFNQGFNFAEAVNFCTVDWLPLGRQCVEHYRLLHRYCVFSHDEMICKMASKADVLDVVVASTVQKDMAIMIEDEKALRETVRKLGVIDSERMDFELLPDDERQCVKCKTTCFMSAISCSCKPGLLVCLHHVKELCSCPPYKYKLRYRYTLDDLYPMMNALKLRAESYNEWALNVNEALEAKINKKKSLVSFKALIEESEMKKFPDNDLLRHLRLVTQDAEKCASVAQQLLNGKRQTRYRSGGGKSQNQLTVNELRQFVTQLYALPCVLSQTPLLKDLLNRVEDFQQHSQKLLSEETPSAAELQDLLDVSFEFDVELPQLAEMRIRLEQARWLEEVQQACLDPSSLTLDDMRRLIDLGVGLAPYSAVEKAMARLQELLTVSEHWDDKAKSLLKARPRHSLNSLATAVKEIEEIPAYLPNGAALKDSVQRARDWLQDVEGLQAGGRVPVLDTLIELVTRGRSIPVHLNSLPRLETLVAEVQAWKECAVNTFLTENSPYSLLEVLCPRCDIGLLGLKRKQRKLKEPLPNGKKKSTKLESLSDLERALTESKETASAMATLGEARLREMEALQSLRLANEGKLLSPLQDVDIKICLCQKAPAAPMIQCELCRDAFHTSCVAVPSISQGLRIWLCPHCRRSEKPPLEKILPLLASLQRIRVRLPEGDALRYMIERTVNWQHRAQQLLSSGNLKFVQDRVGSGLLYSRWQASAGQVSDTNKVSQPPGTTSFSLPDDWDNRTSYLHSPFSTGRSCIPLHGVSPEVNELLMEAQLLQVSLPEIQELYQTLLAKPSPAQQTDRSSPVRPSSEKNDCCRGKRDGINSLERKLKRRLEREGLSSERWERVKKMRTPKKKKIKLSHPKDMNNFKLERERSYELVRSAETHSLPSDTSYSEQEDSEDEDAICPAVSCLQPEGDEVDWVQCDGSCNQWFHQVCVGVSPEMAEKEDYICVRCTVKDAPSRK

T1 sequence (P29375 whole entry): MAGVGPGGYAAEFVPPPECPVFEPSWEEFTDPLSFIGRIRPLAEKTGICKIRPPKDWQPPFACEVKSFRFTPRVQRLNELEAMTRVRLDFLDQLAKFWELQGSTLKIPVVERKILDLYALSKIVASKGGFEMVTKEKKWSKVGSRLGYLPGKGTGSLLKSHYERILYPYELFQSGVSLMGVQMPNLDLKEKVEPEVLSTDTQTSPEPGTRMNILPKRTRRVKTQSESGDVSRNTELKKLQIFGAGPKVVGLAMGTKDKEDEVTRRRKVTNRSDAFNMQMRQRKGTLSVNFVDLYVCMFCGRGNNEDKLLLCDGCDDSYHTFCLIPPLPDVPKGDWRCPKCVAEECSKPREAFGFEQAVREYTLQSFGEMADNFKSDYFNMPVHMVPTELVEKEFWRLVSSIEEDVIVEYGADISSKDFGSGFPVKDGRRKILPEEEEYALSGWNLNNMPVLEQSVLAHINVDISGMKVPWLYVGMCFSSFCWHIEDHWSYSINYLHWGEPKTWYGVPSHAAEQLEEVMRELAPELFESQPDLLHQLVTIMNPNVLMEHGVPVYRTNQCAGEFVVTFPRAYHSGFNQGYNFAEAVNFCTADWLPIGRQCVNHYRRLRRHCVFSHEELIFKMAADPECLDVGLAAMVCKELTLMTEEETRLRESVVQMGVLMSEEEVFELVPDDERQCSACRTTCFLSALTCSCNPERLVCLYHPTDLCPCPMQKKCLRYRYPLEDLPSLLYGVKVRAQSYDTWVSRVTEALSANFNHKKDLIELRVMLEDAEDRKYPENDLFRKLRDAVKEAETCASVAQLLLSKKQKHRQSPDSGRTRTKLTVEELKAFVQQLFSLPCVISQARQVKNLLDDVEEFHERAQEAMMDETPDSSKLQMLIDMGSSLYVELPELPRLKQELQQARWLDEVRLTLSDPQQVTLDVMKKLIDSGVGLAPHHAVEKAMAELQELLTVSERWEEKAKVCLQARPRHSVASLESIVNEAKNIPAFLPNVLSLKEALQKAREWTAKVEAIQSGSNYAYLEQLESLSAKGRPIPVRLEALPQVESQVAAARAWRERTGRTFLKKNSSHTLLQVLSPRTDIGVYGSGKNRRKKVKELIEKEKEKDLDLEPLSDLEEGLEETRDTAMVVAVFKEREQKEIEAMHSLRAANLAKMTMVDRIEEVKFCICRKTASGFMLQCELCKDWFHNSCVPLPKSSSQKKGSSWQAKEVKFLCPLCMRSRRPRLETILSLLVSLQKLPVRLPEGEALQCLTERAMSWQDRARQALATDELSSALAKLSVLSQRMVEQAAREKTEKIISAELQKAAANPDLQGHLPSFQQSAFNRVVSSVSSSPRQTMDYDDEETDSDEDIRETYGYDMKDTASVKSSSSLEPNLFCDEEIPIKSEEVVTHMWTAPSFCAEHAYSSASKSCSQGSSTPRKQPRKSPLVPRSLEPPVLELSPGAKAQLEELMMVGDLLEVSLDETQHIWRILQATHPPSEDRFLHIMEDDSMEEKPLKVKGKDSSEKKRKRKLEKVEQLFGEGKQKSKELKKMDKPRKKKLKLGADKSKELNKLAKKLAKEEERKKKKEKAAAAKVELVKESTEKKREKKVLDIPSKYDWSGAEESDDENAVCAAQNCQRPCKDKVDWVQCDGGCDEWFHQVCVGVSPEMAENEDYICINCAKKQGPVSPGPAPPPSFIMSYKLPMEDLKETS
Sequence of Lysine-specific demethylase 6B (O15054 whole entry): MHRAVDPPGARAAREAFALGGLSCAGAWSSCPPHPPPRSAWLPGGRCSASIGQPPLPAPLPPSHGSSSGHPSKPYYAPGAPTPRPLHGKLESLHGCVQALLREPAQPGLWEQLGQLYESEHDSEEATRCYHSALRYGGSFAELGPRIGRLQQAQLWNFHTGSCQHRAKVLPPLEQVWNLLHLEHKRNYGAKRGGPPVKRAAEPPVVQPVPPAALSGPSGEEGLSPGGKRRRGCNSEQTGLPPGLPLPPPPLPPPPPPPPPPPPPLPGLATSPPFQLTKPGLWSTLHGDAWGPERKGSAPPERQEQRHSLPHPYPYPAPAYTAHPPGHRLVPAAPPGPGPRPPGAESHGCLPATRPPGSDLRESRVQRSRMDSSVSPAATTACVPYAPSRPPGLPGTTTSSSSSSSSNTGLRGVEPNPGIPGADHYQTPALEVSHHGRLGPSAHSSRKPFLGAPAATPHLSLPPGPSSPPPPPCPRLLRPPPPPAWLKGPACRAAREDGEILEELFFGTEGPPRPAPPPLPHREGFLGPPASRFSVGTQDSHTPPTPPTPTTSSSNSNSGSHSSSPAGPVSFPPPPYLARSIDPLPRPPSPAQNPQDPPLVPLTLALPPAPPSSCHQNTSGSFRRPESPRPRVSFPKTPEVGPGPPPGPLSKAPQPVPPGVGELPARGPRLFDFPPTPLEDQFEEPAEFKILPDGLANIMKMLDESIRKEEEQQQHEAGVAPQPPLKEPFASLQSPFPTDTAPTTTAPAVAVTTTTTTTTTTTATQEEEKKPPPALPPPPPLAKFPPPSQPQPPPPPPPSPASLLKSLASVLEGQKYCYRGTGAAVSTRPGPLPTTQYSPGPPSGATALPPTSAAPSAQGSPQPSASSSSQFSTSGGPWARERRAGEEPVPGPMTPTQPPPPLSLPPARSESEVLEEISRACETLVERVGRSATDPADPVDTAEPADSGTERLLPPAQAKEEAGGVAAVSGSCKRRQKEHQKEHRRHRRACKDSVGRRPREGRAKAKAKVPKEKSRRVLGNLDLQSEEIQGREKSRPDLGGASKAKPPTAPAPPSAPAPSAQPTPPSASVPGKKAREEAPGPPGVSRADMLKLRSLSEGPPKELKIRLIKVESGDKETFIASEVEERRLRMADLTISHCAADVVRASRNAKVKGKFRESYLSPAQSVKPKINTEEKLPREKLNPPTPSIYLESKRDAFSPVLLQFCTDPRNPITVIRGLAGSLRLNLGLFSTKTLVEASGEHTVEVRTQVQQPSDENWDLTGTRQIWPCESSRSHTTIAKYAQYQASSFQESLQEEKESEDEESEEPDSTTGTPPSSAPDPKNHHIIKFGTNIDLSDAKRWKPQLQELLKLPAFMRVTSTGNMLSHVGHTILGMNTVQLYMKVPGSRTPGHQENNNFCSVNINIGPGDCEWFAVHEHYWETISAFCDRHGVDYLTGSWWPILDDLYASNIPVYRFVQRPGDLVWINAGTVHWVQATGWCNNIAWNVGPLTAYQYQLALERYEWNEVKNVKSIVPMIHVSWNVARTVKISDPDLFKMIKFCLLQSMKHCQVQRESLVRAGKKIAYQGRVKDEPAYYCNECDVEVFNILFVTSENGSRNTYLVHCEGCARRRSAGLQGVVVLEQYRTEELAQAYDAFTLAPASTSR

Compound | pIC50 [1] | inhibition [2] [%] | other results
Oc1ccccc1/C=N/Nc1ncccn1 |  | 32 | 
Cc1ccnc(NN)n1 |  | -6 | Activity [3]: inactive
NNc1nccc(C(F)(F)F)n1 |  |  | Activity [3]: inactive
COc1ccc(Oc2ccnc(NN)n2)cc1 |  |  | Activity [3]: inactive
NNc1ncc2ccccc2n1 |  |  | Activity [3]: inactive
NNc1ncc(Cl)cn1 |  |  | Activity [3]: inactive
NNc1nccc(C(=O)O)n1 | 6.66 | 99 | pIC50 [4]: 4.37; pIC50 [5]: < 4.00; pIC50 [6]: 4.89; pIC50 [7]: 5.72; pIC50 [8]: < 4.00
NNc1nccc(Oc2ccccc2)n1 |  |  | Activity [3]: inactive
Oc1ccccc1/C=N/Nc1ncc(F)cn1 |  |  | Activity [3]: inactive
NNc1nccc(N2CCOCC2)n1 |  |  | Activity [3]: inactive
NNc1ncccn1 |  | 8 | 
NNc1ncc(F)cn1 |  | 10 | 
Oc1ccccc1/C=N/Nc1ncc(F)c(N2CCOCC2)n1 | 5.64 | 58 | 
NNC(=O)c1ccc(O)cc1 | 4.89 |  | 
NNc1ncc(F)c(N2CCOCC2)n1 |  | 0 | 
NNc1nccc(Oc2ccc(F)cc2)n1 |  |  | Activity [3]: inactive

Second part, led by results:

pIC50 [1] | inhibition [2] [%] | Compound | other results
4.60 |  | c1ccc(Cc2nnc3sc(-c4ccccn4)nn23)cc1 | 
4.60 |  | O=c1c2ccccc2oc2c(O)ccc(O)c12 | 
 | 44 | Cc1ccnc(N/N=C/c2ccccc2O)n1 | 
 | 26 | NNc1nccc(-c2cccc(C(=O)O)c2)n1 | 
 | 19 | Oc1ccccc1/C=N/Nc1ncc(Cl)cn1 | 
 | 0 | O=C(O)c1ccnc(N/N=C/c2ccccc2)n1 | 
 | 3 | O=C(O)c1ccnc(N/N=C/c2ccco2)n1 | 
 | 88 | O=C(O)c1ccnc(N/N=C/c2ccccc2O)n1 | 
5.15 |  | O=C(NNc1c2ccccc2nc2ccccc12)c1ccccn1 | 
4.08 |  | CCN(C1=C(Cl)C(=O)N(c2cccc(C)c2C)C1=O)c1ccccc1 | 
 | 14 | N#Cc1ccc(Nc2nc(NN)ncc2[N+](=O)[O-])cc1 | 
5.38 |  | O=C(COc1cc(O)c2c(=O)cc(-c3ccccc3)oc2c1)OCc1ccccc1 | 
5.30 |  | Cc1ccc(C(=O)c2coc3c2C(=O)C(=O)C(Br)=C3)cc1 | 
4.19 |  | CNc1ccccc(C(=O)/C=C/c2cccc(Oc3ccccc3)c2)c1=O | 
4.89 |  | O=C1c2ccccc2C(=O)c2c1ccc1c(=O)n(-c3ccc(Cl)cc3)[nH]c21 | 
 | 42 | Oc1ccccc1/C=N/Nc1nccc(N2CCOCC2)n1 | 
